# Legend:
# myeloperoxidase [1] = target: T1, myeloperoxidase (Homo sapiens (Human), UniProt P05164); test: MPO Peroxidation Assay (Amplex Red Assay); type: biochemical; conditions: potency range class
# Protocol: MPO Peroxidation Assay (Amplex Red Assay)
# MPO peroxidation activity was measured in 100 mM KPi (pH 7.4) by utilizing the non-fluorescent reagent Amplex Red (Invitrogen Cat. #A12222) which can be oxidized to the highly fluorescent resorufin. Amplex Red is oxidized by the peroxidase action of MPO to resorufin. Reactions were carried out in 50 μL total volume by adding a 25 μL mixture of 200 pM myeloperoxidase and 40 nM H2O2(Sigma #349887) to 100 nL inhibitor in 100% DMSO in a 384 well Perkin Elmer Optiplate. Enzyme and compound were preincubated for ten minutes at rt.
# After the ten minute preincubation, 25 μL of an Amplex Red mixture containing 200 μM Amplex Red and 10 mM H2O2 was added to the plate. Kinetic determinations were carried out immediately on a Perkin Elmer Envision (15 minute kinetic read, Ex: 535 nm, Em: 590 nm).
# IC50 values were calculated by determining the slope of the linear portion of the kinetic trace (180-540 secs), and using that calculated slope to determine % inhibition occurring at each concentration of inhibitor using the following equation:
# (§1) [formula] where A=minimal Y value (activity level of inhibited sample), B=maximal Y value (activity level of uninhibited sample), C=Log IC50, D=Hill Slope, x=concentration of inhibitor. MPO Chlorination Assay (APF Assay)
# myeloperoxidase [2] = target: T1, myeloperoxidase; test: MPO Chlorination Assay (APF Assay); type: biochemical; conditions: potency range class
# Protocol: as §1
# MPO chlorination activity was measured in 100 mM KPi (pH 7.4) by utilizing the non-fluorescent reagent Aminophenyl fluorescein (APF, Invitrogen Cat. #A36003). APF is cleaved by (—OCl) to yield the fluorescent compound fluorescein. Reactions were carried out in 50 μL total volume by adding a 25 μL mixture of 200 pM myeloperoxidase and 120 mM NaCl to 100 nL inhibitor in 100% DMSO in a 384 well, non-binding surface clear bottom plate (Corning #3655). Enzyme, inhibitor, and chloride were preincubated for ten minutes at rt.
# After the ten minute preincubation, 25 μL of an APF mixture containing […], 120 mM NaCl and 10 μM H2O2 was added to the plate using the internal dispensing system of a Hammatsu FDSS 6000. Kinetic determinations were carried out immediately on the FDSS 6000 (3 minute kinetic read, 1 read every second, ex: 485 nm, em: 535 nm). IC50 values for inhibitors were calculated by taking the slope of the linear portion of the kinetic measurement (20 seconds to ˜80-120 secs). […]
# [formula] where A=minimal Y value (activity level of inhibited sample), B=maximal Y value (activity level of uninhibited sample), C=Log IC50, D=Hill Slope, x=concentration of inhibitor.
# T1 sequence (P05164 49-745): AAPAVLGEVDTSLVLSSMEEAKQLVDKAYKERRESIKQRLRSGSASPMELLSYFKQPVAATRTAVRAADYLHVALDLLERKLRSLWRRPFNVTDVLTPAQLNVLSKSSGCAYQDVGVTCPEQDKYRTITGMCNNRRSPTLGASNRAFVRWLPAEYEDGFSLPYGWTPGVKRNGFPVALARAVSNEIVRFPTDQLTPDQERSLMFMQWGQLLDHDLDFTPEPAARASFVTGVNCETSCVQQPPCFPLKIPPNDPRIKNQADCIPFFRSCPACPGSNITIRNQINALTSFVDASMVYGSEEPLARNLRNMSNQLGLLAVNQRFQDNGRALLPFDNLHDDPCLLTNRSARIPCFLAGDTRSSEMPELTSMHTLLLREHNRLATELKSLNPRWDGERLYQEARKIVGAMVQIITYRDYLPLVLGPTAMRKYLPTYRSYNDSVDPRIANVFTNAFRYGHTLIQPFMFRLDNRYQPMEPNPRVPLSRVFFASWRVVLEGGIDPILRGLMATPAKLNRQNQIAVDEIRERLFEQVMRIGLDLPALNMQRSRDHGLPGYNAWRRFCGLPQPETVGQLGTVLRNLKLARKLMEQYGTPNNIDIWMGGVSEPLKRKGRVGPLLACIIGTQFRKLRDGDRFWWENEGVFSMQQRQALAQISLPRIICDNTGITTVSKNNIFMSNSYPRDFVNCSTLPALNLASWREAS
IC50 (myeloperoxidase [1]) [nM],IC50 (myeloperoxidase [2]) [nM],Compound
1000 to 10000,101 to 999,"Nc1cc([C@H](CCN[C@H]2CC[C@H](c3ccccc3)CC2)c2cnn(Cc3cccc(OC(F)F)c3)c2)c2nn[nH]c2n1 [Example 33A, 7(S)-[1-(1-{[3-(Difluoromethoxy)phenyl]methyl}-1H-pyrazol-4-yl)-3-{[trans-4-phenylcyclohexyl]amino}propyl]-3H-[1,2,3]triazolo[4,5-b]pyridin-5-amine]"
101 to 999,1 to 100,"Nc1cc(C(CCN[C@H]2CC[C@H](c3ccccc3)CC2)c2cccnc2)c2nn[nH]c2n1 (stereo partly drawn) [Example 34, 7-[1-(Pyridin-3-yl)-3-{[trans-4-phenylcyclohexyl]amino}propyl]-3H-[1,2,3]triazolo[4,5-b]pyridin-5-amine]"
1000 to 10000,1 to 100,Nc1cc(C(CCN2C[C@H](Cc3ccccc3)[C@@H](O)C2)c2cnn(Cc3cccc(O)c3)c2)c2nn[nH]c2n1 (some centres unmarked) [Example 43]
101 to 999,101 to 999,Nc1cc(C(CCN[C@H]2CC[C@H](c3ccccc3)CC2)c2ccc(F)nc2)c2nn[nH]c2n1 (some centres unmarked) [Example 45]
101 to 999,101 to 999,Nc1cc(C(CCNCc2ccccc2)c2cnn(Cc3cccc(O)c3)c2)c2nn[nH]c2n1 (centres unmarked) [Example 46]
101 to 999,101 to 999,CCC(c1cnn(Cc2cccc(O)c2)c1)c1cc(N)nc2[nH]nnc12 (centres unmarked) [Example 47]
101 to 999,1 to 100,Nc1cc(C(CCNC23CCC(c4ccccc4)(CC2)CC3)c2cnn(CCc3cccc(O)c3)c2)c2nn[nH]c2n1 (centres unmarked) [Example 50]
1 to 100,1 to 100,Nc1cc(C(CCNC23CCC(c4ccccc4)(CC2)[C@@H](O)C3)c2cnn(Cc3cccc(O)c3)c2)c2nn[nH]c2n1 (some centres unmarked) [Example 52]
1000 to 10000,101 to 999,Nc1cc(C(CCN[C@@H]2CC[C@@H](Cc3ccccc3)C2)c2cnn(CCc3cccc(O)c3)c2)c2nn[nH]c2n1 (some centres unmarked) [Example 53]
1000 to 10000,101 to 999,Nc1cc(C(CCN[C@H]2C[C@H](Cc3ccccc3)[C@@H](O)C2)c2cnn(CCc3cccc(O)c3)c2)c2nn[nH]c2n1 (some centres unmarked) [Example 54]

# More lines, now with the values behind:
Compound,IC50 (myeloperoxidase [1]) [nM],IC50 (myeloperoxidase [2]) [nM]
"Nc1cc([C@@H](CCN[C@H]2CC[C@H](c3ccccc3)CC2)c2cnn(Cc3cccc(OC(F)F)c3)c2)c2nn[nH]c2n1 [Example 33B, 7(R)-[1-(1-{[3-(Difluoromethoxy)phenyl]methyl}-1H-pyrazol-4-yl)-3-{[trans-4-phenylcyclohexyl]amino}propyl]-3H-[1,2,3]triazolo[4,5-b]pyridin-5-amine]",1 to 100,1 to 100
"Nc1cc(C(CCN[C@H]2CC[C@H](c3ccccc3)CC2)c2cc[nH]c(=O)c2)c2nn[nH]c2n1 (stereo partly drawn) [Example 35, 4-(1-{5-Amino-3H-[1,2,3]triazolo[4,5-b]pyridin-7-yl}-3-{[trans-4-phenylcyclohexyl]amino}propyl)-1,2-dihydropyridin-2-one]",101 to 999,1 to 100
"Nc1cc(C(CCN[C@H]2CC[C@H](c3ccccc3)CC2)c2cc[nH]n2)c2nn[nH]c2n1 (stereo partly drawn) [Example 36, 7-[1-(1H-Pyrazol-3-yl)-3-{[trans-4-phenylcyclohexyl]amino}propyl]-3H-[1,2,3]triazolo[4,5-b]pyridin-5-amine]",1000 to 10000,101 to 999
"Nc1cc(C(CCN[C@@H]2C[C@@H](Cc3ccccc3)[C@H](O)C2)c2cnn(Cc3cccc(O)c3)c2)c2nn[nH]c2n1 (stereo partly drawn) [Example 42, 3-{[4-(1-{5-Amino-3H-[1,2,3]triazolo[4,5-b]pyridin-7-yl}-3-{[(1R,3R,4R)-3-benzyl-4-hydroxycyclopentyl]amino}propyl)-1H-pyrazol-1-yl]methyl}phenol]",1 to 100,1 to 100
Nc1cc(C(CCN[C@H]2CC[C@H](c3ccccc3)CC2)c2cncc(F)c2)c2nn[nH]c2n1 (some centres unmarked) [Example 44],1000 to 10000,101 to 999
Nc1cc(C(CCNCc2cccc(CO)c2)c2cnn(Cc3cccc(O)c3)c2)c2nn[nH]c2n1 (centres unmarked) [Example 48],1000 to 10000,101 to 999
Nc1cc(C(CCNCc2cccc(O)c2)c2cnn(Cc3cccc(O)c3)c2)c2nn[nH]c2n1 (centres unmarked) [Example 49],1000 to 10000,101 to 999
Nc1cc(C(CCNC23CCC(c4ccccc4)(CC2)[C@H](O)C3)c2cnn(Cc3cccc(O)c3)c2)c2nn[nH]c2n1 (some centres unmarked) [Example 51],1 to 100,1 to 100
Nc1cc(C(CCO)c2cnn(Cc3cccc(OC4CCC(N)C4)c3)c2)c2nn[nH]c2n1 (centres unmarked) [Example 55],101 to 999,101 to 999

# Source: patent US11059818B2, “Triazolopyridine inhibitors of myeloperoxidase” (BRISTOL-MYERS SQUIBB COMPANY, priority 2016, dated 2021)
